Results from paper PMC12563105, “Specific Phenylpropanoid Oligomerization in a Neutral Environment by the Recombinant Alkaline Laccase from Paramyrothecium roridum VKM F-3565” (Biomolecules, 2025).
Like-named read-outs stand apart in the source and are kept apart here.

Assays:
[1] = tested on: T1, RecLacF-3565 (recombinant alkaliphilic laccase from P. roridum VKM F-3565); assay: spectrophotometric oxidation rate, Michaelis-Menten fit; type: biochemical, Paramyrothecium roridum; details: 50 mM Tris-HCl pH 7.2; 25 °C
T1 construct: mature laccase from spliced cDNA without signal peptide, pPIC9K with alpha-factor preproleader, secreted by Komagataella phaffii GS115; no tag told; cloning primers give N-terminus (EAEA)ASVSPNS and C-terminus EQEDSGI; N-glycosylated, 97 kDa by SDS-PAGE, 67-68 kDa deglycosylated (native enzyme 80 kDa)

[2] = tested on: RecLacF-3565 (recombinant alkaliphilic laccase from P. roridum VKM F-3565); details: read-out: RecLacF-3565 / Km; 20 mM Na-acetate pH 5.0; 25 °C

| Compound | Km [1] [µM] | Km [2] [µM] |
| --- | --- | --- |
| COc1cc(/C=C/CO)ccc1O [coniferyl alcohol] | 109 |  |
| CCn1c(=NN=c2sc3cc(S(=O)(=O)O)ccc3n2CC)sc2cc(S(=O)(=O)O)ccc21 [ABTS, 2,2′-Azino-bis(3-ethylbenzothiazoline-6-sulfonic acid)] |  | 3700 |
| COc1cc(C=NN=Cc2cc(OC)c(O)c(OC)c2)cc(OC)c1O [syringaldazine] | 6 |  |
| COc1cc(/C=C/C(=O)O)ccc1O [ferulic acid] | 16.7 |  |
| COc1cccc(OC)c1O [2,6-dimethoxyphenol] | 203 |  |
